Laboratory results reported in patent US4610686A, “Controlled delivery of haloperidol by an osmotic delivery system” (ALZA Corporation, priority 1983, dated 1986).
≈ marks a conversion by molar mass, not a printed value.

How the values were obtained:
[1] = haloperidol alone
[2] = haloperidol, background statement; cited from earlier work

Which results are given for `O=C(CCCN1CCC(O)(c2ccc(Cl)cc2)CC1)c1ccc(F)cc1` [haloperidol, 4-[4-(-chlorophenyl)-4-hydroxy-1-piperidnyl]-1-(4-fluorophenyl)-1-butanone]?
osmotic pressure (in words) [1]: near zero osmotic pressure; solubility in water (in words, background) [2]: practically insoluble in water; solubility (physchem; aqueous citric acid): 165 mg/mL (≈ 439 mM); solubility (physchem; aqueous maleic acid): > 200 mg/mL; solubility (physchem; aqueous malic acid): > 250 mg/mL; solubility (physchem; water): < 0.1 mg/mL
